Results taken from article PMC3404106, “Pharmacology of DB844, an Orally Active aza Analogue of Pafuramidine, in a Monkey Model of Second Stage Human African Trypanosomiasis” (PLoS Neglected Tropical Diseases, 2012).
“And” between values parts separate entries of the source, which are not always exact repeats. Equal entries are not always repeated. “Also recorded” adds a separate entry of the source.

System: Trypanosoma brucei rhodesiense KETRI 2537
Assay: Efficacy in vervet monkey model of second stage HAT
Assay type: in vivo
Settings: for TOC test at 300 days post last dose / EoT test at 1 day post last dose (trypanosomes in blood/CSF) / EoT test at 4 days post last dose (trypanosomes in blood/CSF): individual monkeys; for EoT test at 1 day post last dose (trypanosomes in blood/CSF) / EoT test at 4 days post last dose (trypanosomes in blood/CSF): Neg/Pos
Text: A pleomorphic isolate, T.b rhodesiense KETRI 2537, a derivative of EATRO 1989 that was isolated from a patient in Uganda by direct inoculation of blood and lymph node aspirate into a monkey and later cryopreserved at KARI- TRC [18], was used. This isolate is the basis of the KETRI vervet monkey and mouse models and has been widely used for drug efficacy trials, [20].
Sixteen vervet monkeys in two groups of eight monkeys each (four males and four females) were used. After a 14-day baseline weight, clinical and haematology data collection period, the sixteen monkeys were infected by intravenous injection of approximately 10^4 trypanosomes diluted from infected blood of immuno-suppressed donor Swiss white mice. Parasitaemia post infection was determined by examination of wet film of ear prick blood and/or examination of buffy coat after centrifugation of blood collected in a heparinised capillary tube as described previously. Parasitaemia in wet film was estimated using the rapid matching method of Herbert and Lumsden. In addition, monkeys were confirmed to be in second stage disease by detection of trypanosomes in the CSF with or without elevated white cell counts above 5 cells/µl, [20], [21], [23]. At 28 days post infection (DPI), the animals were treated with DB844 via oral gavage at 5 mg/kg qd×10 days (group I, n = 8) or 6 mg/kg qd×14 days (group II, n = 8), utilising a dose volume of 1 ml/kg. The monkeys were examined for parasitaemia every day during drug treatment and then twice weekly until ≥300 days post dosing, at which point monkeys were considered cured if they remained clinically normal and parasite-free as determined below.

[1] = group I: DB844 5 mg/kg×10 days per os, 28–37 DPI, 5 mg/kg
[2] = group II: DB844 6 mg/kg×14 days per os, 28–41 DPI, 6 mg/kg
[3] = relapsed monkeys of both groups

CONC(=N)c1ccc(-c2ccc(-c3ccc(C(=N)NOC)cn3)o2)cc1 [DB844, N-methoxy-6-{5-[4-(N-methoxyamidino)phenyl]-furan-2-yl}-nicotinamidine]
EoT provisional cure rate at 4 days post dosing (both groups (5 mg/kg×10 days and 6 mg/kg×14 days)): 100%
overall cure rate (both study groups): approximately 40%
trypanosomes in the blood or cerebrospinal fluid at end of treatment evaluation (four days post the last drug dose, any monkey): not detected
TOC test at 300 days post last dose [1]: Cured; also recorded: Relapsed
EoT test at 1 day post last dose (trypanosomes in blood/CSF) [1]: Neg and Pos
EoT test at 4 days post last dose (trypanosomes in blood/CSF) [1]: neg and Neg
TOC test at 300 days post last dose [2]: Cured; also recorded: Relapsed
EoT test at 4 days post last dose (trypanosomes in blood/CSF) (group II: DB844 6 mg/kg×14 days per os, 28–41 DPI): Neg
EoT test at 1 day post last dose (trypanosomes in blood/CSF) [2]: Neg and Pos
cure rate in the vervet monkey model of 2nd stage HAT (oral DB844, best of the two regimens): up to 43%
median (range) time to trypanosome recrudescence in CSF [3]: 133 (35–322, n = 9) days and 133 days
median (range) time to trypanosome recrudescence in blood [3]: 261 (239–322, n = 3) days and 261 days
